Where no end group is shown, it is not given here.
Tests used:
[1] = system: NMDA-insult to the retina; assay: In vivo rat retinal toxicity model of NMDA-induced chemical stroke; settings: for long-term protection against NMDA-induced retinal ganglion cell death: 14-21 day post-insult, single dosing; for long-term protection against NMDA-induced retinal ganglion cell death / NMDA-induced loss of plasma membrane selectivity in NMDA-receptive neurons / NMDA-induced caspase activation / NMDA-induced mitochondrial-induced oxidative stress in the retina / NMDA-induced poly-(ADP)ribosylolation / short-term protection against NMDA-insult: rat retina; for short-term neuronal cell death signaling: compound administered simultaneously with NMDA-induced chemical stroke; for NMDA-induced loss of plasma membrane selectivity in NMDA-receptive neurons: out to 8 hrs post-insult, compound given simultaneously with NMDA; for NMDA-induced caspase activation / NMDA-induced mitochondrial-induced oxidative stress in the retina / NMDA-induced poly-(ADP)ribosylolation: short-term, 2-4 hrs post-NMDA-insult
Text: 7. Blockade of PARP activity attenuates poly(ADP-ribosyl)ation but offers only partial neuroprotection against NMDA-induced cell death in the rat retina. (Goebel and Winkler, J Neuro Chem, 98:1732-1745, 2006) (NMDA-induced chemical stroke in vivo rat retinal neurotoxicity model).
In a test model, the retina was protected from NMDA-induced chemical stroke. […] The compositions of this invention are useful in a variety of clinical situations, most of which are characterized by neurological insult or cellular insult typified by mitochondrial damage. Without being bound by any particular theory, untreated mitochondrial damage is believed to lead to generation of free radical species. The compositions of this invention appear to avert or curtail oxidative stress in the retina following NMDA-insult by reducing mitochondrial originated free radical generation. Without being bound by any particular theory, such activity is believed to be significant in neuroprotection arising from the compositions of this invention.
Data establish that the compounds of the present invention protect the neural tissue (retina) against a strong NMDA-insult, with particular reference to R(7) (SEQ ID NO: 5), CR(7) (SEQ ID NO: 8) and C-s-s-CR(7) (“CR(7)” disclosed as SEQ ID NO: 8).

HEK293 cells = assay: Cultured HEK293 cells pretreated with peptide, chemically induced excitotoxic challenge, mitochondrial readouts; format: cell-based; settings: for oxidative stress following excitotoxic challenge / stress-induced hyperpolarization of the mitochondrial membrane potentials: HEK293 cells pretreated with peptide, compared with sham-treated controls; for mitochondrial oxidative stress: further studies by the applicant's group, system not given
glaucoma = assay: Glaucoma patient treated with CR(7) eye drops (Example 9); format: in vivo, human; settings: Example 9, glaucoma patient, eye drops 1.25 μg per 20 μl drop, two drops morning and night, chronic
Description: A person presents with a complaint of blurry vision in their left eye for 1 week. Their IOP is above 21 mmHg. A diagnosis of glaucoma is made.
Effort is made to surgically reduce IOP. In post-surgical monitoring, IOP levels remain above normal excepted levels. To prevent retinal damage resulting from the prolonged exposure to elevated IOP. the patient is administered CR(7) (SEQ ID NO: 8) in the form of eye drops suspended in a corneal penetrating lipophilic suspension. Each 20 μl drop contains 1.25 μg of CR(7) (SEQ ID NO: 8) The total applied/treatment is 2.5 μg. Two drops are administered morning and two drops at night

retinal neurons = assay: Uptake of fluorescent-tagged peptides into retinal neurons after injection into the vitreal chamber; format: in vivo; settings: intravitreal, rat
Description: Attention is drawn to the uptake into brain tissues under in vivo conditions Fluorescent-tagged R(7) (SEQ ID NO: 5) and C-s-s-CR(7) (“CR(7)” disclosed as SEQ ID NO: 8) were injected into the vitreal chamber of a rat eyes and analyzed for specific uptake into retinal neurons at multiple time points post-injection. […] At longer time points (2-4 hrs post injection) the accumulation of the labeled peptides accumulated within the cytoplasm of the majority of neurons in the inner half of the retina with preferential accumulations being localized to small membrane-bound organelles surrounding the nucleus of both ganglion cells and amacrine cells as well as in exiting ganglion cell axons.

stroke = assay: Stroke patient treated i.v. with polyarginine (Examples 1, 2); format: in vivo, human
Description: A person enters the emergency room and is diagnosed with an ischemic event involving the middle cerebral artery, with symptomatology onset being under 1 hr. Immediately, the patient was administered an i.v. supplemented with poly-arginine (R(7)C-s-s-C (“R(7)C” disclosed as SEQ ID NO: 12), 5 mg/kg) while blood supply to the restricted area is restored.
A person is revived following stoke in their home by EMS and is rushed to the nearest hospital 80 miles away. Upon arriving at the hospital it is determined that the patient is showing signs of weakness on their left side. […] They are immediately started an i.v. and administered poly arginine (R(7) (SEQ ID NO: 5))@ 4 mg/kg/hr over a period of 5 days to arrest post-stroke neuronal damage. The patient is monitored for recovery signs.

Traumatic Brain Injury = assay: TBI patient treated i.v. with polyarginine (Example 3); format: in vivo, human; settings: Example 3, severe concussion patient, i.v. 0.05 mg/kg, 3-5 days
Description: A high school football player is rushed to the emergency room of a local hospital suffering from a severe concussion following a helmet to helmet impact with an opposing player. The patient is initially unconscious on the field for over 20 min. EMS personnel arrived to find the patient responding to stimuli, but completely disoriented and unable to coordinate muscle movement, articulate speech or focus eye movements. Upon arriving at the ER, the patient is administered an i.v. containing R(7)C-s-s-C (“R(7)C” disclosed as SEQ ID NO: 12) peptide at 0.05 mg/kg. Delivery of the peptide continued until brain swelling resulting from the impact returns to normal state (3-5 days). Without being bound by any particular theory, the therapeutic is to arrest neuronal cell death resulting from these documented post-traumatic effects.

spinal cord injury = assay: Spinal cord injury patient treated i.v. with polyarginine (Example 8); format: in vivo, human; settings: Example 8, spinal cord injury patient, i.v. 0.15 mg/kg every other day for 30 days
Description: A person presents with a spinal cord injury following an automobile accident. The subject is conscious but unable to move their legs. […] A Th(11)-L(2) laminectomy is performed along with retrieval of foreign bodies and dura repair. Upon admission the patient is administered an i.v. containing R(7)C-s-s-C (“R(7)C” disclosed as SEQ ID NO: 12) peptide at 0.15 mg/kg.

[2] = system: neurons in the spinal cord and in the brain; assay: Intrathecal and intraventricular injection of fluorescent-tagged peptides, distribution in spinal cord and brain; format: in vivo; settings: fluorescent-tagged peptide
Text: Testing addressed intrathecal and intraventricular injection of fluorescent-tagged R(7) (SEQ ID NO: 5) and C-s-s-C-R(7) (“C-R(7)” disclosed as SEQ ID NO: 8). […] This approach is a workable option for quick delivery to prevent both stroke or traumatic injury to these tissues.

[3] = Example 2, post-stroke patient, i.v. 4 mg/kg/hr over 5 days, observed over the next 30 days

Compound	long-term protection against NMDA-induced retinal ganglion cell death [1]	short-term neuronal cell death signaling [1]	NMDA-induced loss of plasma membrane selectivity in NMDA-receptive neurons [1]	NMDA-induced caspase activation [1]	NMDA-induced mitochondrial-induced oxidative stress in the retina [1]	NMDA-induced poly-(ADP)ribosylolation [1]	oxidative stress following excitotoxic challenge (HEK293 cells)	stress-induced hyperpolarization of the mitochondrial membrane potentials (HEK293 cells)	mitochondrial oxidative stress (HEK293 cells)	short-term protection against NMDA-insult [1]	other results
N=C(N)NCCCC(NC(=O)[C@H](CCCNC(=N)N)NC(=O)C(N)CSSC[C@H](N)C(=O)O)C(=O)N[C@@H](CCCNC(=N)N)C(=O)NC(CCCNC(=N)N)C(=O)N[C@@H](CCCNC(=N)N)C(=O)NC(CCCNC(=N)N)C(=O)N[C@@H](CCCNC(=N)N)C(N)=O (stereo partly shown) [C-s-s-CR(7), C-s-s-C-R-R-R-R-R-R-R]	not significantly different from results obtained from untreated or sham-treated control retinas	block	blocked	fully block	fully block	fully block	significant attenuation	significant attenuation	significantly prevented	–	–
C-R-R-R-R-R-R-R (CRRRRRRR) [CR(7)]	not significantly different from results obtained from untreated or sham-treated control retinas	block	blocked	fully block	fully block	fully block	significant attenuation	significant attenuation	significantly prevented	–	neuroprotection ([1]; general statement, retina, NMDA-insult): effective when the peptide is made with either l- or d-amino acids; progression of neuronal cell death (glaucoma): no progression of neuronal cell death is detected
Fluorescent-tagged R(7): Fluorescent-tagged R(7) (SEQ ID NO: 5) (RRRRRRR; also: fluorescent tag, position not given here)	–	–	–	–	–	–	–	–	–	–	accumulation in retinal neurons and glia cells of ganglion and inner nuclear layers (retinal neurons; fluorescent-tagged peptide, 30 min following injection): significant accumulations; subcellular localisation of labeled peptide (double labeling) (retinal neurons; 2-4 hrs post injection): majority of these labeled puncta colocalize with mitochondrial-specific markers
R(7)-C: 7 arginine peptide with C-terminus cysteine (SEQ ID NO: 12) (RRRRRRRC; MOD_RES (1)..(7) Residues may be D or L configuration)	both short and long-term protection	–	–	–	–	–	–	–	–	both short and long-term protection	–
R(7)C-s-s-C: R(7)C (SEQ ID NO: 12) with second cysteine linked by disulfide to the terminal cysteine (RRRRRRRC(Cys); also: extra cysteine disulfide-linked to Cys8)	–	–	–	–	–	–	–	–	–	–	CT/MRI imaging of the affected region (stroke; Example 1, ischemic stroke patient, i.v. 5 mg/kg): no signs of lesioning in the affected region; daily testing of cognitive and motor systems (stroke; Example 1, ischemic stroke patient, i.v. 5 mg/kg, onset under 1 hr): no deficits in physical or mental capacities; TBI and post-concussion symptoms (Traumatic Brain Injury): remains symptom free of TBI and post-concussion effects; recovery of leg movement (spinal cord injury): substantial ability to move their legs is returned
RRRRRRR [R(7)]	less effective	block	blocked	fully block	fully block	fully block	significant attenuation	significant attenuation	significantly prevented	full short-term protection	muscle tone and limb recovery (stroke; [3]): increased muscle tone on the left side; speech pattern recovery (stroke; [3]): Improvement in their speech pattern
d-C-s-s-dCdR(7): d-isomer of C-s-s-CR(7) (CRRRRRRR; D-amino acids, disulfide-linked; MOD_RES (1)..(7) Residues are D configuration)	full short- and long-term neuroprotection	–	–	–	–	–	–	–	–	full short- and long-term neuroprotection	–
d-CdR(7): d-isomer of CR(7) (SEQ ID NO: 13) (CRRRRRRR; D-amino acids; MOD_RES (1)..(7) Residues are D configuration)	full short- and long-term neuroprotection	–	–	–	–	–	–	–	–	full short- and long-term neuroprotection	–
fluorescent-tagged CR(7): fluorescent-tagged CR(7) (SEQ ID NO: 8) (CRRRRRRR; also: fluorescent tag, position not given here)	–	–	–	–	–	–	–	–	–	–	accumulation in neurons of spinal cord and brain [2]: Preferential accumulation was noted in the neurons located within the hippocampus and cerebral cortex; crossing of the pia matter glial barrier [2]: readily crosses the pia matter glial barrier

Reference: patent US10040822B2, “Neuroprotective composition and method of use” (Brown University, priority 2012, dated 2018)
